Like-named read-outs stand apart in the source and are kept apart here. One block for each compound: values may come before it.
Tests used:
hERG = hERG (Homo sapiens (Human), UniProt Q12809); assay: hERG inhibitory activity, whole cell patch clamp in CHO hERG cells; format: cell-based; conditions: for inhibition at 10 µM: human, CHO cells that express hERG, read-out: hERG inhibitory rate
Protocol: This experiment was carried out to test the in vitro inhibitory activity of the compounds of the present disclosure against hERG.
In this method, whole cell recording was conducted by using a HEKA EPC 10 USB patch clamp amplifier (HEKA Elektronik, Germany). A cover slide with a large number of individual CHO hERG cells on the surface was removed and placed in a recording tank which was treated with continuous perfusion (about 1 ml/min) and loaded into an inverted microscope. Currents of hERG channels of the individual cells were recorded by using a standard whole cell recording method. A fixed voltage of −80 mV was applied to the cells by a voltage clamp. The hERG currents were activated by depolarization at +20 mV for 5 s, and then the currents were changed back at −50 mV for 5 s to remove a passivation effect and observe deactivated tail currents. Potassium ion tail currents observed in the hERG channels were stabilized by continuous perfusion in this step. Then, the cells were treated with a drug of the present disclosure until a stable state was reached. A stable state was considered as being reached when three consecutive superimposed currents were recorded. At this time point, the cells were treated again with an extracellular solvent until the current amplitude was changed back to near the level before administration. Cisapride was used in a control experiment to verify that the mass and response of hERG cells were in a normal state.

LSD1 = LSD1 (Homo sapiens (Human), UniProt O60341); assay: LSD1 inhibitory activity on an enzyme level, AlphaScreen method; format: biochemical; conditions: in vitro
Protocol: This experiment was carried out to test the in vitro inhibitory activity of the compounds of the present disclosure against LSD1.
Experimental steps and a method: In this experiment, the in vitro inhibitory activity of the compounds of the present disclosure against LSD1 on an enzyme level was tested by using an AlphaScreen method. The experimental steps are described as follows: • a) preparation of a 1× buffer: • preparing a 1× buffer (improved trihydroxymethylaminomethane buffer); • b) continuous dilution of the compounds: • transferring the compounds of the present disclosure to a porous plate by using Echo at a final DMSO concentration of 1%; • c) preparation of an enzyme solution: • preparing an enzyme solution in the 1× buffer; • d) preparation of a substrate solution: • adding polypeptide to the 1× buffer to prepare a substrate solution; • e) transferring 5 μL of the enzyme solution or the 1× buffer to the porous plate; • f) conducting incubation at room temperature for 15 min; • g) adding 5 μL of the substrate solution to each well to induce a reaction; • h) conducting incubation at room temperature for 40 min; • i) preparing a 1× Alphalisa buffer; • j) preparation of a 1× Alphalisa buffer solution of receptors and donors: • adding 15 μL of a receptor and donor solution in dark light environment, and conducting incubation at room temperature for 60 min; • k) reading an endpoint in an EnSpire Alpha mode; and • l) data processing: • calculating an inhibitory value according to an equation 1:
Inh %=(Max−Signal)/(Max−Min)*100; and equation 1: • calculating an IC50 value by using XL-Fit according to an equation 2:
Y=Bottom+(Top-Bottom)/(1+(IC50/X)[…]), equation 2: • where Y indicates the inhibitory rate, and X indicates the concentration of a compound.

[1] = Pharmacokinetics after intravenous injection or oral administration in mice; format: in vivo; conditions: mouse, plasma, CD-1 mice, 5 mg/kg; for AUC(0-t): read-out: Curve area AUC0-t; for half-life: read-out: Half-life T1/2 (converted)
Protocol: This experiment was carried out to test pharmacokinetic properties of the compounds of the present disclosure in mice.
A tested compound was dissolved in a mixture of 10% DMSO, 10% Solutol HS15 and 80% normal saline, and subjected to vortex treatment and ultrasonic treatment to obtain a corresponding concentration of a clarified solution. Then, the clarified solution was filtered with a microporous filter membrane for later use. A resulting tested compound solution was injected intravenously to CD-1 mice with a body weight of 21 to 27 g at a dose of 5 mg/kg. A tested compound was dissolved in a mixture of 10% DMSO, 10% Solutol HS15 and 80% normal saline, and subjected to vortex treatment and ultrasonic treatment to obtain a corresponding concentration of a clarified solution. Then, the clarified solution was filtered with a microporous filter membrane for later use. A resulting tested compound solution was administered orally to CD-1 mice with a body weight of 21 to 27 g at a dose of 5 mg/kg. Whole blood was collected at certain time points, and plasma was prepared. Drug concentration was analyzed by an LC-MS/MS method, and pharmacokinetic parameters were calculated by Phoenix WinNonlin software.

Sequence of hERG (Q12809 whole entry): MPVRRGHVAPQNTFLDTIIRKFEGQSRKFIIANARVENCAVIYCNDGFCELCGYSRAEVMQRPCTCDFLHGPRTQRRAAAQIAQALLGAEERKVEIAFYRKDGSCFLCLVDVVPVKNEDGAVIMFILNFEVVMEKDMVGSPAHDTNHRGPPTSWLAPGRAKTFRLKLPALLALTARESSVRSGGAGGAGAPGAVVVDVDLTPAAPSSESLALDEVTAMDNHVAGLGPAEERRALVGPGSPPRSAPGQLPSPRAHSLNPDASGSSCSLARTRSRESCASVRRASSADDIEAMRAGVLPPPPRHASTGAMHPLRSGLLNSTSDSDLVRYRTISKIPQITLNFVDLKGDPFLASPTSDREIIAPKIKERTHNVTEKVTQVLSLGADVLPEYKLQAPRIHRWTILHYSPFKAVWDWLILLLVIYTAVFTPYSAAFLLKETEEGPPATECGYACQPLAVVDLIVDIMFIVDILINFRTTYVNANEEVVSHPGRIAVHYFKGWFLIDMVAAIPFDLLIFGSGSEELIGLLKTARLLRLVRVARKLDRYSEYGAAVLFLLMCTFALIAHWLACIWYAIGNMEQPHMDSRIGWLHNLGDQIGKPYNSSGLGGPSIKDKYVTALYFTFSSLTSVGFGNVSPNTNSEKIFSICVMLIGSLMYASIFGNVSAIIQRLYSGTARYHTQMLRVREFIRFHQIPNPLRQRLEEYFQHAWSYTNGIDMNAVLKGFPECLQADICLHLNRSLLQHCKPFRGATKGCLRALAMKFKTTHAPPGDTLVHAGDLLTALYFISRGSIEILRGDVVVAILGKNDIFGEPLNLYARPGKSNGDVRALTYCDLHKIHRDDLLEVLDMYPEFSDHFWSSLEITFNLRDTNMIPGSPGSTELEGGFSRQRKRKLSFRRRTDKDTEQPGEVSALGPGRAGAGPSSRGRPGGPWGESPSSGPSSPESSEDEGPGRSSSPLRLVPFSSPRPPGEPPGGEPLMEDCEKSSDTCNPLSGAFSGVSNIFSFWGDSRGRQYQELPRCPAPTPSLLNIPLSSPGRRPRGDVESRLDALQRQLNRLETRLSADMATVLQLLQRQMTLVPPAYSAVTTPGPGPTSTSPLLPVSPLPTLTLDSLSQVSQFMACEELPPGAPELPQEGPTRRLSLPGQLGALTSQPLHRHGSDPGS

- IC50 (LSD1): 1.6 nM
SMILES: CC(C)(O)Cn1nnc2cc(-c3c(-c4ccc(C#N)c(F)c4)nc4c(N5CCC[C@@H](N)C5)nccn34)c(F)cc21 [Compound 12, (R)-4-(8-(3-aminopiperidin-1-yl)-3-(6-fluoro-1-(2-hydroxy-2-methylpropyl)-1H-benzo[d][1,2,3]triazol-5-yl)imidazo[1,2-a]pyrazin-2-yl)-2-fluorobenzonitrile]
- inhibition at 10 µM (hERG): 27%

SMILES: CC(C)(O)Cn1nnc2cc(-c3c(-c4ccc(C#N)c(F)c4)nc4c(N5CCC[C@@H](N)C5)nccn34)c(F)cc21 [Compound 18, (R)-4-(8-(3-aminopiperidin-1-yl)-3-(6-fluoro-1-(2-hydroxy-2-methylpropyl)-1H-benzo[d][1,2,3]triazol-5-yl)imidazo[1,2-a]pyrazin-2-yl)-2-fluorobenzonitrile]
- hERG inhibitory rate (hERG; 10 μM): 43.72%

- IC50 (LSD1): 2.6 nM
SMILES: CC(C)(O)Cn1nnc2cc(-c3c(-c4ccc(C#N)c(F)c4)nc4c(N5CCC[C@@H](N)C5)nccn34)ccc21 [Compound 20, (R)-4-(8-(3-aminopiperidin-1-yl)-3-(1-(2-hydroxy-2-methylpropyl)-1H-benzo[d][1,2,3]triazol-5-yl)imidazo[1,2-a]pyrazin-2-yl)-2-fluorobenzonitrile]
- inhibition at 10 µM (hERG): 26.7%

SMILES: CC(C)(O)Cn1nnc2cc(-c3c(-c4ccc(C#N)c(F)c4)nc4c(N5[C@@H]6CC[C@H]5[C@@H](N)C6)nccn34)c(F)cc21 [Compound 27, 4-(8-((1S,2S,4R)-2-amino-7-azabicyclo[2.2.1]heptane-7-yl)-3-(6-fluoro-1-(2-hydroxy-2-methylpropyl)-1H-benzo[d][1,2,3]triazol-5-yl)imidazo[1,2-a]pyrazin-2-yl)-2-fluorobenzonitrile]
- Vd ([1]; intravenous injection, read-out: Apparent volume of distribution V): 5.04 L/kg
- clearance ([1]; intravenous injection, read-out: Clearance rate CL): 7.25 mL/min/kg
- AUC(0-t) ([1]; intravenous injection): 11500 ng·h/mL
- half-life ([1]; intravenous injection): 8.33 h
- Cmax ([1]; oral administration, read-out: Blood drug concentration Cmax): 648 ng/mL
- AUC(0-t) ([1]; oral administration): 6530 ng·h/mL
- half-life ([1]; oral administration): 5.86 h
- IC50 (LSD1): 1 nM

From patent US20230399332A1, “IMIDAZO[1,2-a]PYRAZINE OR PYRAZOLO[1,5-a]PYRIMIDINE DERIVATIVE AND USE THEREOF” (TENCENT TECHNOLOGY (SHENZHEN) COMPANY LIMITED, priority 2022, published 2023)
